Laboratory results reported in patent EP0215956A1, “COMPOSITION FOR TREATING SKIN DISEASE” (priority 1985, dated 1986).

Key:
psoriasis vulgaris = assay: Peroral administration to patients with psoriasis vulgaris (case reports); type: in vivo, human; conditions: for psoriasis vulgaris severity: 0.75 µg per day orally
Procedure: In order to treat this disease, 0.75 µg of la-hydroxyvitamin D3 was orally administered per day.
This patient had been suffering from psoriasis vulgaris for one year, during which period they were under therapy involving external use of corticosteroid. […] Thereafter, the external use of corticosteroid was suspended and only la-hydroxyvitamin D3 was kept administered perorally.
After suspending the external use of corticosteroid, peroral administration of la-hydroxyvitamin D3 in a daily dose of 1 µg was initiated.
This patient had been suffering from psoriasis vulgaris for 2 years.

patients = conditions: human, in vivo, po
Excerpt: the six patients under therapy by oral administration of la-dihydroxyvitamin D3 and the one patient receiving orally administered la,25-dihydroxyvitamin D3 were subjected to the following analyses, tests and measurements at intervals of twice a month in the first two months of administration and once a month in the subsequent period: blood analysis for determining the number of erythrocytes, the number of platelets and the percentage of leucocytes; urine analysis for determining the levels of urinary protein, glucose, pH, acetone and urobilinogen and the presence of occult blood; testing liver functions by determining the levels of blood GOT, GPT and total bilirubin; testing kidney functions by determining the levels of blood creatinine and BUN; and the measurement of blood calcium and inorganic phosphate levels.

[1] = Acute toxicity test (LD50), rats; conditions: rat, in vivo, 5-week-old SD-TCL rats, Litchfield-Wilcoxon method
Procedure: (§1) Acute toxicity of la-hydroxyvitamin D3 was evaluated by its peroral and subcutaneous administration to mice and rats.

[2] = Acute toxicity test (LD50), mice; conditions: mouse, in vivo, 5-week-old ddY mice, Litchfield-Wilcoxon method
Procedure: as §1

[3] = patient, daily dose of 1 µg perorally, two months, external corticosteroid suspended

C=C1/C(=C\C=C2/CCC[C@]3(C)[C@@H]([C@H](C)CCCC(C)(C)O)CC[C@@H]23)C[C@@H](O)C[C@@H]1O [la,25-dihydroxyvitamin D3]
dermal lesion condition (psoriasis vulgaris; patient, daily dose of 0.5 µg perorally, three months, diminished rashes and flares): moderate improvement in the dermal lesion condition | abnormal subjective symptom or objective sign (patients): Not a single patient under therapy had any abnormal subjective symptom or objective sign | change of blood, urine, liver function, kidney function, blood calcium and inorganic phosphate parameters from values prior to treatment (patients): None of the parameters analyzed showed any abnormal change

C=C1/C(=C\C=C2/CCC[C@]3(C)[C@@H]([C@H](C)CCCC(C)C)CC[C@@H]23)C[C@@H](O)C[C@@H]1O [la-hydroxyvitamin D3, 1α-hydroxyvitamin D3]
LD50 ([1]; po, Peroral, female): 0.743 mg/kg | LD50 ([1]; po, Peroral, male): 0.62 mg/kg | LD50 ([1]; sc, subcutaneous, female): 0.04 mg/kg | LD50 ([1]; sc, subcutaneous, male): 0.056 mg/kg | LD50 ([2]; po, Peroral, female): 0.71 mg/kg | LD50 ([2]; po, Peroral, male): 0.68 mg/kg | LD50 ([2]; sc, subcutaneous, female): 0.058 mg/kg | LD50 ([2]; sc, subcutaneous, male): 0.055 mg/kg | dermal lesion condition (psoriasis vulgaris; patient (psoriasis for 6 years), daily dose of 1 µg perorally, three months): moderate improvement in the dermal lesion condition | dermal lesion condition (psoriasis vulgaris; patient (psoriasis for 25 years), daily dose of 1 µg perorally, three months): moderate improvement in the dermal lesion condition | psoriasis vulgaris severity (psoriasis vulgaris; patient, a half month after the two months and a half): virtually disappeared | psoriasis vulgaris severity (psoriasis vulgaris; patient, two months and a half after start): dramatically diminished in severity | dermal lesion condition (psoriasis vulgaris; patient, 1.0 µg per day orally, four months later, with external corticosteroid, slight loss of dermal pigment remained): improved pronouncedly | dermal lesion condition (psoriasis vulgaris; patient, 1.0 µg per day orally, two months after start, with external corticosteroid): a sign of improvement in the dermal lesion condition | dermal lesion condition (psoriasis vulgaris; patient, daily dose of 1 µg orally, two months after start): diminished by a small degree | dermal lesion condition (psoriasis vulgaris; patient, daily dose of 1 µg orally, two more months later): pronounced improvement in the condition | condition of the lesion elsewhere on the body (psoriasis vulgaris; [3]): improved markedly | dermal lesion on the soles (psoriasis vulgaris; [3]): disappeared | dermal lesion condition (psoriasis vulgaris; patient, peroral only, external corticosteroid suspended, six months later): completely cured | maintenance of improvement (psoriasis vulgaris; patient, subsequent peroral daily dose of 0.5 ug): improvement could be maintained | abnormal subjective symptom or objective sign (patients): Not a single patient under therapy had any abnormal subjective symptom or objective sign | change of blood, urine, liver function, kidney function, blood calcium and inorganic phosphate parameters from values prior to treatment (patients): None of the parameters analyzed showed any abnormal change
